The record followed here is ChEMBL document CHEMBL2390892, “Synthesis and cytotoxic activity on human cancer cells of carbamate derivatives of 4β-(1,2,3-triazol-1-yl)podophyllotoxin” (Eur J Med Chem, 2013).

As usually defined, the pIC50 is −log10 of the IC50, conventionally taken in molar units.

For data set [1], the target named is DNA topoisomerase 2-alpha (Homo sapiens) (UniProt P11388). The data set can be described thus: Inhibition of DNA topoisomerase-2 (unknown origin) assessed as inhibition of pBR322 DNA relaxation at 100 uM by agarose gel electrophoresis.
Sequence of DNA topoisomerase 2-alpha (Homo sapiens) (P11388 whole entry): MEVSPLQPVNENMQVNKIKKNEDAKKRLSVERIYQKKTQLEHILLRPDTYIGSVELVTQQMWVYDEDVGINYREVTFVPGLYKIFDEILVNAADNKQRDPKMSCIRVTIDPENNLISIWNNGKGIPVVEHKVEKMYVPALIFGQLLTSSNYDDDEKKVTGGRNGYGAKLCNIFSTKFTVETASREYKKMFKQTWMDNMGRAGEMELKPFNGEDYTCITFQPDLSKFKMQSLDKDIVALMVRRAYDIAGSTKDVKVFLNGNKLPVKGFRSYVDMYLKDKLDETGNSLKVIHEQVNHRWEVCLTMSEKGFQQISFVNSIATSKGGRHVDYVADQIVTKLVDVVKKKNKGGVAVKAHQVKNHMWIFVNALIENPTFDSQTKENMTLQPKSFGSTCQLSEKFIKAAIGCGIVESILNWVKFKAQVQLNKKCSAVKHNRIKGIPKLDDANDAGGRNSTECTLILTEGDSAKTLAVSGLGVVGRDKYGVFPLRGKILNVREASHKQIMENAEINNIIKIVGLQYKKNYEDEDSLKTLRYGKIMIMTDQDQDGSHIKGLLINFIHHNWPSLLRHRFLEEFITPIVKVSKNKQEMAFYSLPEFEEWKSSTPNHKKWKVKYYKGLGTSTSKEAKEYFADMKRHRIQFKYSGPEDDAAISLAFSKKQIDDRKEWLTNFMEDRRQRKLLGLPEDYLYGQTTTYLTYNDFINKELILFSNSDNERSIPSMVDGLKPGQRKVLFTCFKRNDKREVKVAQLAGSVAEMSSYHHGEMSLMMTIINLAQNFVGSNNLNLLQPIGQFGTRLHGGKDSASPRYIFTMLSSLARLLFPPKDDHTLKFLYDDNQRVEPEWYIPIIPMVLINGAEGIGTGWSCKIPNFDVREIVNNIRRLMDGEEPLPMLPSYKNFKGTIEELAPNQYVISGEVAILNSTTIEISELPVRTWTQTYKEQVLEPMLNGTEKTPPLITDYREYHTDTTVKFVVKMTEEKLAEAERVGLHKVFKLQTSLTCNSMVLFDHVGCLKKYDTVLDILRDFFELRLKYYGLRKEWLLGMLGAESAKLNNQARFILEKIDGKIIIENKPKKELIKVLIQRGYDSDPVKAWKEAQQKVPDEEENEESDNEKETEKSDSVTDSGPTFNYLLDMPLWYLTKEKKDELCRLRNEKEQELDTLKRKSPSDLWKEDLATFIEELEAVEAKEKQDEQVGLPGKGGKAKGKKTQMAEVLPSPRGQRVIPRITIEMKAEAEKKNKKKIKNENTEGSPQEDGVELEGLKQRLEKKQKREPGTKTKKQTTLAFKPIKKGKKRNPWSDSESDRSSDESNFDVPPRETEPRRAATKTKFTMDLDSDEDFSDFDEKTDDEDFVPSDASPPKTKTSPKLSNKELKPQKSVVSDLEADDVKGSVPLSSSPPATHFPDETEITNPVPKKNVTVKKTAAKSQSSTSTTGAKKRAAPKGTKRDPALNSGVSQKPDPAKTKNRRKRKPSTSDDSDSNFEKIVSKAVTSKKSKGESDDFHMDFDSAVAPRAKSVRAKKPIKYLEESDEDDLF
The subject of another data set is HCT-8. The data set can be described thus: Cytotoxicity against human HCT8 cells assessed as growth inhibition after 48 hrs by MTT assay. Type of data set: functional, cell-based. Particulars: HCT-8, 48 h. On the technique in general: Formazan colour is commonly taken as a measure of viable cells.
Data set [2] has as its system A549. Description: Cytotoxicity against human A549 cells assessed as growth inhibition after 48 hrs by MTT assay. In kind it is functional, cell-based. As to conditions: A549, 48 h.
The test system of the next data set is HL-60. Description: Cytotoxicity against human HL60 cells assessed as growth inhibition after 48 hrs by CCK-8 assay. As to conditions: HL-60, 48 h. Type of data set: functional, cell-based.
Another data set deals with HeLa. Description: Cytotoxicity against human HeLa cells assessed as growth inhibition after 48 hrs by MTT assay. In kind it is functional, cell-based.
Data set [3] can be described thus: Solubility of the compound in water. Type of data set: physicochemical. As to conditions: buffer.
The test system of data set [4] is A549. The data set can be described thus: Induction of apoptosis in human A549 cells assessed as cell shrinkage after 48 hrs by confocal microscopic analysis. Type of data set: functional, cell-based.
The test system of data set [5] is A549. The data set can be described thus: Cell cycle arrest in human A549 cells assessed as accumulation at G2/M phase at 5 uM after 48 hrs by propidium iodide staining-based FACS flow cytometric analysis (reference value: 16.4%). Type of data set: functional. A general note: Flow cytometry measures light scatter and fluorescence of single cells or particles in a stream.

The test system of data set [6] is A549. Description: Cell cycle arrest in human A549 cells assessed as accumulation at G2/M phase at 5 uM after 24 hrs by propidium iodide staining-based FACS flow cytometric analysis (reference value: 16.4%). In kind it is functional.
The subject of data set [7] is A549. Description: Cell cycle arrest in human A549 cells assessed as accumulation at S phase at 5 uM after 48 hrs by propidium iodide staining-based FACS flow cytometric analysis (reference value: 25.5%). In kind it is functional.
The test system of data set [8] is A549. Description: Cell cycle arrest in human A549 cells assessed as accumulation at S phase at 5 uM after 24 hrs by propidium iodide staining-based FACS flow cytometric analysis (reference value: 25.5%). Type of data set: functional.
Data set [9] relates to A549. The data set can be described thus: Cell cycle arrest in human A549 cells assessed as accumulation at G1 phase at 5 uM after 48 hrs by propidium iodide staining-based FACS flow cytometric analysis (reference value: 58.1%). In kind it is functional.
Data set [10] relates to A549. The data set can be described thus: Cell cycle arrest in human A549 cells assessed as accumulation at G1 phase at 5 uM after 24 hrs by propidium iodide staining-based FACS flow cytometric analysis (reference value: 58.1%). Type of data set: functional.
For data set [11], the system named is A549. Description: Cell cycle arrest in human A549 cells assessed as accumulation at sub-G1 phase at 5 uM after 48 hrs by propidium iodide staining-based FACS flow cytometric analysis (reference value: 1.5%). In kind it is functional.
For data set [12], the system named is A549. The data set can be described thus: Cell cycle arrest in human A549 cells assessed as accumulation at sub-G1 phase at 5 uM after 24 hrs by propidium iodide staining-based FACS flow cytometric analysis (reference value: 1.5%). Type of data set: functional.
Data set [13] has as its system A549. Description: Induction of apoptosis in human A549 cells assessed as nuclear condensation after 48 hrs by DAPI staining-based confocal microscopic analysis. Type of data set: functional, cell-based.
Data set [14] concerns A549. Description: Induction of apoptosis in human A549 cells assessed as nuclear DNA fragmentation after 48 hrs by DAPI staining-based confocal microscopic analysis. Type of data set: functional, cell-based.
Data set [15] has as its system A549. Description: Induction of apoptosis in human A549 cells assessed as appearance of round, short and dense microtubule networks after 48 hrs by confocal microscopic analysis. Type of data set: functional, cell-based.

Molecules are shown by their SMILES. pIC50: −log10 of the molar value. Calls of active or inactive are those of the source. The calls are words filed in the database; no cut-off is given here.

In the case of `COc1cc([C@@H]2c3cc4c(cc3[C@@H](O[C@@H]3O[C@@H]5CO[C@@H](C)O[C@H]5[C@H](O)[C@H]3O)[C@H]3COC(=O)[C@H]23)OCO4)cc(OC)c1O` [ETOPOSIDE], the inhibition result in data set [1] was “Active”. Moreover, the pIC50 in the data set with HCT-8 was 5.15; in the data set with A549 [2] it was 5.49; in the data set with HL-60, 5.94; in the data set with HeLa, 5.54.
For the molecule `CCCNC(=O)OCc1cn([C@@H]2c3cc4c(cc3[C@@H](c3cc(OC)c(OC)c(OC)c3)[C@H]3C(=O)OC[C@@H]32)OCO4)nn1`, the pIC50 is 5.20 in the data set with HCT-8, 4.33 in the data set with A549 [2], 5.56 with HL-60 and 5.13 with HeLa.
Turning to `COc1cc([C@@H]2c3cc4c(cc3[C@@H](n3cc(COC(=O)N[C@@H](CCSC)C(=O)N5CCN(c6ccc([N+](=O)[O-])cc6)CC5)nn3)[C@H]3COC(=O)[C@H]23)OCO4)cc(OC)c1O`, the solubility entry in data set [3] was “soluble”. For the same molecule, the pIC50 in the data set with HCT-8 was 4.39; in the data set on A549 [2] it was 4.34; with HL-60, 4.80; with HeLa, 4.99.
For the molecule `COc1cc([C@@H]2c3cc4c(cc3[C@H](O)[C@H]3COC(=O)[C@H]23)OCO4)cc(OC)c1OC` [PODOFILOX], the solubility result in data set [3] is “soluble”.
In the case of `COc1cc([C@@H]2c3cc4c(cc3[C@@H](n3cc(COC(=O)N5CCOCC5)nn3)[C@H]3COC(=O)[C@H]23)OCO4)cc(OC)c1O`, the negative logarithm of the IC50 (pIC50) with HCT-8 is 6.43; in the data set with A549 [2], 5.84; in the data set with HL-60, 7.35; in the data set with HeLa, 7.52.
In the case of `COc1cc([C@@H]2c3cc4c(cc3[C@@H](n3cc(COC(=O)NC5CCCC5)nn3)[C@H]3COC(=O)[C@H]23)OCO4)cc(OC)c1OC`, the negative-log IC50 (pIC50) with HCT-8 is 4.83; in the data set with A549 [2], 4.83; in the data set on HL-60 it was 6.43; in the data set with HeLa, 5.94.
Consider `COc1cc([C@@H]2c3cc4c(cc3[C@@H](n3cc(COC(=O)NC5CCCC5)nn3)[C@H]3COC(=O)[C@H]23)OCO4)cc(OC)c1O`, for which the inhibition entry in data set [1] is “Active”. Moreover, the Activity entry is “Dose-dependent effect” in the data set on A549 [4]; 22.2% in the data set on A549 [5]; 20.6% in the data set on A549 [6]; 55.1% in the data set with A549 [7]; 36.3% with A549 [8]; 22.7% in the data set with A549 [9]. For the same molecule, the Activity is 43.1% in the data set with A549 [10]; 26.8% with A549 [11]; 24.3% in the data set on A549 [12]; “Dose-dependent effect” in the data set with A549 [13]; “Dose-dependent effect” in the data set with A549 [14]; “Dose-dependent effect” with A549 [15]. In addition, the negative logarithm of the IC50 (pIC50) was 7.30 in the data set on HCT-8, 6.85 in the data set with A549 [2], > 8.00 in the data set with HL-60 and 6.29 in the data set on HeLa.
Take `COc1cc([C@@H]2c3cc4c(cc3[C@@H](n3cc(COC(=O)N5CCOCC5)nn3)[C@H]3COC(=O)[C@H]23)OCO4)cc(OC)c1OC`: the pIC50 is 5.69 with HCT-8, 4.63 in the data set on A549 [2], 6.20 with HL-60 and 4.45 in the data set on HeLa.
Regarding `COc1cc([C@@H]2c3cc4c(cc3[C@@H](n3cc(COC(=O)N5CCN(c6ccc(F)cc6)CC5)nn3)[C@H]3COC(=O)[C@H]23)OCO4)cc(OC)c1OC`, the negative-log IC50 (pIC50) was 5.83 in the data set on HCT-8, 4.66 with A549 [2], > 8.00 with HL-60 and 5.42 in the data set with HeLa.
As to `COc1cc([C@@H]2c3cc4c(cc3[C@@H](n3cc(CO)nn3)[C@H]3COC(=O)[C@H]23)OCO4)cc(OC)c1OC`, the pIC50 was 5.56 in the data set with HCT-8, 4.66 with A549 [2], 6.53 with HL-60 and 6.04 in the data set with HeLa.
For the molecule `CCCNC(=O)OCc1cn([C@@H]2c3cc4c(cc3[C@@H](c3cc(OC)c(O)c(OC)c3)[C@H]3C(=O)OC[C@@H]32)OCO4)nn1`, the negative logarithm of the IC50 (pIC50) in the data set on HCT-8 was 4.79; with A549 [2], 4.64; with HL-60 it was 6.74; with HeLa, 5.16.
With `COc1cc([C@@H]2c3cc4c(cc3[C@@H](n3cc(COC(=O)N5CCN(c6ccc([N+](=O)[O-])cc6)CC5)nn3)[C@H]3COC(=O)[C@H]23)OCO4)cc(OC)c1OC`, the negative logarithm of the IC50 (pIC50) is 4.50 in the data set on HCT-8, 4.25 with A549 [2], 6.20 with HL-60 and 5.19 with HeLa.
On the same counts, the results for `COc1cc([C@@H]2c3cc4c(cc3[C@@H](n3cc(COC(=O)N5CCN(C6CCCC6)CC5)nn3)[C@H]3COC(=O)[C@H]23)OCO4)cc(OC)c1OC` are 6.46, 5.06, > 8.00 and > 8.00.
As to `COc1cc([C@@H]2c3cc4c(cc3[C@@H](n3cc(COC(=O)N5CCN(c6ccc([N+](=O)[O-])cc6)CC5)nn3)[C@H]3COC(=O)[C@H]23)OCO4)cc(OC)c1O`, the solubility result in data set [3] is reported as “soluble”. Also, the negative logarithm of the IC50 (pIC50) in the data set with HCT-8 was 5.21; in the data set with A549 [2], 5.25; with HL-60, 6.49; with HeLa it was 5.46.
